In patent publication US20260102359A1, “COMBINATION TREATMENT OF DERMAL AND TRANSDERMAL FIBROTIC DISEASES, DISORDERS AND ASSOCIATED PAIN AND INFLAMMATION” (ERESINA, LLC, priority 2022, published 2026):
Counter-ions that a name gives are not always drawn.

What follows are molecules tested on hDMFa myofibroblast cells.

Row | Structure (SMILES) | Compound Myofibroblast Cytotoxicity Activity
1 | N[C@@H](Cc1c[nH]cn1)C(=O)O [Cmpd 586, L-Histidine] | +
2 | CC1(C)Cc2c(-c3ccccc3)c(-c3ccc(Cl)cc3)c(CC(=O)O)n2C1 [Cmpd 588, Licofelone] | +++
3 | CCN(CC)CC(=O)Nc1c(C)cccc1C.Cl.O [Cmpd 589, Lidocaine hydrochloride monohydrate] | ++
4 | CCCCC/C=C\C/C=C\CCCCCCCC(=O)O [Cmpd 591, Linoleic Acid] | +++
5 | C[C@]1(O)C[C@@H](c2nc(-c3ccc4ccc(-c5ccccc5)nc4c3)c3c(N)nccn32)C1 [Cmpd 592, Linsitinib] | +++
6 | CC[C@H](C)[C@H](N)C(=O)O [Cmpd 594, L-Isoleucine] | +
7 | O=C([O-])[O-].[Li+].[Li+] [Cmpd 595, Lithium carbonate] | ++++
8 | CC(C)C[C@H](N)C(=O)O [Cmpd 596, L-Leucine] | +++
9 | CSCC[C@H](N)C(=O)O [Cmpd 600, L-Methionine] | ++++
10 | CN(C)C(=O)C(CCN1CCC(O)(c2ccc(Cl)cc2)CC1)(c1ccccc1)c1ccccc1 [Cmpd 606, Loperamide HCl] | +++
11 | CC(C(=O)O)c1ccc(CC2CCCC2=O)cc1 (stereo not drawn) [Cmpd 611, Loxoprofen Sodium] | ++
12 | O=C(O)[C@@H]1CCCN1 [Cmpd 612, L-Proline] | ++++
13 | O=C1CC[C@@H](C(=O)O)N1 [Cmpd 613, L-Pyroglutamic acid] | ++++
14 | C[C@@H](O)[C@H](N)C(=O)O [Cmpd 614, L-Threonine] | +++++
15 | N[C@@H](Cc1c[nH]c2ccccc12)C(=O)O [Cmpd 615, L-Tryptophan] | ++
16 | CC(C)[C@H](N)C(=O)O [Cmpd 618, L-Valine] | ++
17 | CCN1CCN(Cc2ccc(Nc3ncc(F)c(-c4cc(F)c5nc(C)n(C(C)C)c5c4)n3)nc2)CC1 [Cmpd 622, LY2835219 free base] | ++++
18 | C[C@H]1[C@H](C)CC[C@]2(C(=O)O)CC[C@]3(C)C(=CC[C@@H]4[C@@]5(C)C[C@@H](O)[C@H](O)[C@@](C)(CO)[C@@H]5[C@H](O)C[C@]43C)[C@H]12 [Cmpd 625, Madecassic acid] | +++++
19 | NCc1ccc(S(N)(=O)=O)cc1 [Cmpd 626, Mafenide Acetate] | ++++
20 | Cl.NCc1ccc(S(N)(=O)=O)cc1 [Cmpd 627, Mafenide hydrochloride] | ++
21 | O=C(O)CC(=O)O [Cmpd 631, Malonic acid] | ++++
22 | CC(C)OC(=O)C(C(=O)OC(C)C)=C1SC=CS1 [Cmpd 632, Malotilate] | ++

Row | Structure (SMILES) | Compound Myofibroblast Cytotoxicity Activity
23 | CNCCCC12CCC(c3ccccc31)c1ccccc12 [Cmpd 635, Maprotiline HCl] | +++
24 | Cc1cccc(O)c1 [Cmpd 636, m-Cresol] | ++
25 | COC(=O)Nc1nc2ccc(C(=O)c3ccccc3)cc2[nH]1 [Cmpd 637, Mebendazole] | ++++
26 | CCN(CCCCOC(=O)c1ccc(OC)c(OC)c1)C(C)Cc1ccc(OC)cc1.Cl (stereo not drawn) [Cmpd 638, Mebeverine Hydrochloride] | ++
27 | CNC1(C)C2CCC(C2)C1(C)C.Cl (stereo not drawn) [Cmpd 639, Mecamylamine hydrochloride] | ++++
28 | Cc1cccc(CN2CCN(C(c3ccccc3)c3ccc(Cl)cc3)CC2)c1.Cl.Cl (stereo not drawn) [Cmpd 641, Meclizine 2HCl] | ++
29 | CC(=O)O[C@]1(C(C)=O)CC[C@H]2[C@@H]3C[C@H](C)C4=CC(=O)CC[C@]4(C)[C@H]3CC[C@@]21C [Cmpd 643, Medroxyprogesterone acetate] | ++
30 | Cl.OC(c1cc(C(F)(F)F)nc2c(C(F)(F)F)cccc12)C1CCCCN1 (stereo not drawn) [Cmpd 644, Mefloquine hydrochloride] | ++++
31 | CC(C)=CCC/C(C)=C/CC/C(C)=C/CC/C(C)=C/CC1=C(C)C(=O)c2ccccc2C1=O [Cmpd 652, Menaquinone 4] | ++
32 | CC(=O)OC(C)C[N+](C)(C)C (stereo not drawn) [Cmpd 655, Methacholine chloride] | ++
33 | COc1cccc(OC)c1C(=O)N[C@@H]1C(=O)N2[C@@H]1SC(C)(C)[C@@H]2C(=O)O [Cmpd 656, Methicillin (sodium salt)] | ++
34 | CSCC[C@H](N)C(=O)O [Cmpd 657, Methionine] | ++
35 | CN(Cc1cnc2nc(N)nc(N)c2n1)c1ccc(C(=O)N[C@@H](CCC(=O)[O-])C(=O)[O-])cc1.[Na+].[Na+] [Cmpd 658, Methotrexate disodium] | ++
36 | COC(=O)c1ccccc1O [Cmpd 659, Methyl salicylate] | ++
37 | CS(C)(=O)=O [Cmpd 660, Methyl Sulfonyl Methane (MSM)] | +
38 | C/C1=C2/[N-][C@H]([C@H](CC(N)=O)[C@@]2(C)CCC(=O)NC[C@@H](C)OP(=O)([O-])O[C@H]2[C@@H](O)[C@@H](n3cnc4cc(C)c(C)cc43)O[C@@H]2CO)[C@]2(C)N=C(/C(C)=C3N=C(/C=C4N=C1[C@@H](CCC(N)=O)C\4(C)C)[C@@H](CCC(N)=O)[C@]\3(C)CC(N)=O)[C@@H](CCC(N)=O)[C@]2(C)CC(N)=O.[CH3-].[Co+3] [Cmpd 662, Methylcobalamin] | ++
39 | CN(C)c1ccc2nc3ccc(=[N+](C)C)cc-3sc2c1 [Cmpd 663, Methylene Blue] | +++++
40 | COC(=O)c1ccc(O)cc1 [Cmpd 664, Methylparaben] | ++
41 | COCCc1ccc(OCC(O)CNC(C)C)cc1 (stereo not drawn) [Cmpd 665, Metoprolol Tartrate] | ++
42 | CC(C)(C(=O)c1cccnc1)c1cccnc1 [Cmpd 667, Metyrapone] | ++
43 | CC[C@H](C)C(=O)O[C@H]1CCC=C2C=C[C@H](C)[C@H](CC[C@@H]3C[C@@H](O)CC(=O)O3)[C@H]21 [Cmpd 668, Mevastatin] | +++
44 | Clc1ccc(COC(Cn2ccnc2)c2ccc(Cl)cc2Cl)c(Cl)c1 (stereo not drawn) [Cmpd 671, Miconazole] | +++

Row | Structure (SMILES) | Compound Myofibroblast Cytotoxicity Activity
45 | Clc1ccc(COC(Cn2ccnc2)c2ccc(Cl)cc2Cl)c(Cl)c1 (stereo not drawn) [Cmpd 672, Miconazole Nitrate] | +++
46 | COc1ccc(OC)c(C(O)CNC(=O)CN)c1 (stereo not drawn) [Cmpd 673, Midodrine (hydrochloride)] | ++++
47 | CO[C@@H]1[C@H](N(C)C(=O)c2ccccc2)C[C@H]2O[C@]1(C)n1c3ccccc3c3c4c(c5c6ccccc6n2c5c31)C(=O)NC4 [Cmpd 674, Midostaurin (PKC412)] | ++
48 | CCN(CC)C(=O)C1(c2ccccc2)CC1CN (stereo not drawn) [Cmpd 676, Milnacipran HCl] | ++++
49 | CCCCCCCCCCCCCCCCOP(=O)([O-])OCC[N+](C)(C)C [Cmpd 677, Miltefosine] | +++++
50 | N=c1nc(N2CCCCC2)cc(N)n1OS(=O)(=O)O [Cmpd 678, Minoxidil sulphate] | ++
51 | CN1CCN2c3ncccc3Cc3ccccc3C2C1 (stereo not drawn) [Cmpd 679, Mirtazapine] | ++++
52 | Clc1ccc(C(c2ccccc2Cl)C(Cl)Cl)cc1 (stereo not drawn) [Cmpd 681, Mitotane (Lsodren)] | +++
53 | O=C1c2c(O)ccc(O)c2C(=O)c2c(NCCNCCO)ccc(NCCNCCO)c21 [Cmpd 682, Mitoxantrone HCl] | +++++
54 | COc1cc(Nc2ncc3c(n2)-c2ccc(Cl)cc2C(c2c(F)cccc2OC)=NC3)ccc1C(=O)O [Cmpd 685, MLN8237 (Alisertib)] | ++++
55 | O=c1c(-n2ccnn2)c[nH]n1-c1cc(N2CCOCC2)ncn1 [Cmpd 687, Molidustat (BAY85-3934)] | +++
56 | C[C@@H]1C[C@H]2[C@@H]3CCC4=CC(=O)C=C[C@]4(C)[C@@]3(Cl)[C@@H](O)C[C@]2(C)[C@@]1(OC(=O)c1ccco1)C(=O)CCl [Cmpd 688, Mometasone furoate] | ++
57 | CC(C)(O)c1ccccc1CC[C@@H](SCC1(CC(=O)O)CC1)c1cccc(/C=C/c2ccc3ccc(Cl)cc3n2)c1 [Cmpd 689, Montelukast Sodium] | +++++
58 | CCCN(CCC)C(=O)C1=Cc2ccc(-c3ccc(C(=O)N4CCCC4)cc3)cc2N=C(N)C1 [Cmpd 690, Motolimod (VTX-2337)] | ++
59 | O[C@H]1[C@H](O)[C@@H](O)[C@H](O)[C@@H](O)[C@H]1O [Cmpd 692, myo-Inositol] | ++++
60 | CC(=O)N[C@@H](CS)C(=O)O [Cmpd 695, N-Acetyl-L-cysteine] | +
61 | CN(C/C=C/c1ccccc1)Cc1cccc2ccccc12 [Cmpd 696, Naftifine HCl] | ++
62 | COc1ccccc1N1CCN(CC(O)COc2cccc3ccccc23)CC1 (stereo not drawn) [Cmpd 697, Naftopidil] | +++
63 | COc1ccc([C@@H]2CC(=O)c3c(O)cc(O[C@@H]4O[C@H](CO)[C@@H](O)[C@H](O)[C@H]4O[C@@H]4O[C@@H](C)[C@H](O)[C@@H](O)[C@H]4O)cc3O2)cc1O [Cmpd 702, Neohesperidin] | ++
64 | NC(=O)c1cccnc1 [Cmpd 705, Niacinamide] | +
65 | COC(=O)C1=C(C)NC(C)=C(C(=O)OCCN(C)Cc2ccccc2)C1c1cccc([N+](=O)[O-])c1 (stereo not drawn) [Cmpd 706, Nicardipine HCl] | +++
66 | CO[C@]12C[C@@H](COC(=O)c3cncc(Br)c3)CN(C)[C@@H]1Cc1cn(C)c3cccc2c13 [Cmpd 707, Nicergoline] | ++
